Like-named read-outs stand apart in the source and are kept apart here.
Experiments:
Bel7402 = test system: Bel7402; design: method as in PMID 31080076; details: cited from earlier work
Bel-7402/5-FU = test system: Bel-7402/5-FU; design: method as in PMID 31080076; details: cited from earlier work
SW480 cells [1] = experiment: Cell viability, sulforhodamine B (SRB) assay; type: cell-based; details: Homo sapiens
Method: (§1) SW480 (colon adenocarcinoma) and SW620 (derived metastatic) malignant cell lines, and the non-malignant lines HaCaT (human keratinocytes) and CHO-K1 (Chinese Hamster Ovary), were obtained from the European Collection of Authenticated Cell Cultures (ECACC, Porton Down, Salisbury, UK). The cells were maintained in Dulbecco’s Modified Eagle’s Medium (DMEM), supplemented with 10% equine serum previously inactivated at 56 °C, 1% penicillin/streptomycin, and 1% non-essential amino acids, and incubated at 37 °C in an atmosphere with 5% CO2. To carry out the experiments, the serum was diluted to 3% and additionally supplemented with […] insulin, […] transferrin, and 5 ng/mL selenium. Cells were used for experimentation when they reached 80–90% confluence, using a 1X trypsin enzymatic disintegration method. To avoid contamination by Mycoplasma spp., cell cultures were periodically analyzed by polymerase chain reaction (PCR).
(§2) Cell viability was evaluated with a sulforhodamine B (SRB) assay. This technique provides an index of protein contents in living and adherent cells, whose optical density can be related to cell concentration. Initially, 20,000 cells were seeded per well in 96-well culture plates. An initial adherence period of 24 h was performed at 37 °C, 5% CO2, and after this, the medium was replaced by another that contained the hybrid compounds in different concentrations. Then, the cells were left incubating for 24 and 48 h under the same conditions previously described. After the respective incubation times, the cells were fixed with trichloroacetic acid (50% v/v) for 1 h at 4 °C and stained with 0.4% (p/v) of SRB. Subsequently, washings with 1% acetic acid were carried out to eliminate possible nonspecific bindings, and after solubilization with 10 mM Tris-base, the absorbance was read at 492 nm in a microplate reader (Mindray MR-96A). All the experiments were carried out in triplicate.

SW620 cells [2] = experiment: Cell viability, sulforhodamine B (SRB) assay; type: cell-based, human
Method: as §1, §2

HaCaT cells = experiment: Cell viability, sulforhodamine B (SRB) assay, non-malignant cells; type: cell-based; details: Homo sapiens
Method: as §1, §2

CHO-K1 cells = experiment: as above; type: cell-based, Chinese Hamster; details: Cricetulus griseus
Method: as §1, §2

SW620 cells [3] = experiment: Antiproliferative activity (SRB, 0-8 days); type: cell-based, human; details: for viability at 2.5 µM / viability at 40 µM: Homo sapiens, read-out: Cell Viability (%) ± SE; for viability at 2.5 µM: SW620, 2.5 µM; for viability at 40 µM: SW620, 40 µM
Method: For this experiment, the same colorimetric method (SRB) from the evaluation of cell viability was used, although with some modifications. Initially, 2500 cells per well were seeded in 96-well culture plates, and a 24 h adherence period was performed at 37 °C in a 5% CO2 atmosphere. […] For this assay, incubation periods of 0, 2, 4, 6, and 8 days were used, and the fixation, staining, and reading conditions were the same as those previously described for the cytotoxicity assay.

SW620 cells [4] = experiment: Cell cycle analysis (PI, flow cytometry); type: cell-based, human; details: SW620, treated with IC50 value, 48 h
Method: The method used for the recognition of cell cycle phases (G0/G1, S, G2/M) was based on staining with a fluorescent dye (propidium iodide—PI), as a direct relationship between fluorescence intensity and DNA content can be established. For this method, 250,000 cells/well were initially seeded in 6-well culture plates with an adherence period of 24 h at 37 °C in a 5% CO2 atmosphere. […] After treatment, cells were obtained by mechanical disaggregation, and the cell pellet was centrifuged and washed with a versene buffer. The cell pellet was fixed with 1.8 mL of cold 70% ethanol and kept at 4 °C overnight. Subsequently, two washes with a versene buffer were performed, and the pellet was resuspended in 300 µL of PBS containing 0.25 mg/mL of RNAsa and 0.1 mg/mL of PI. After a 30 min period of dark incubation, the fluorescence of 10,000 cells was analyzed using a FACS Canto II flow cytometer. The PI signal was analyzed with excitation at 488 nm using a sapphire laser, and fluorescence was detected at 610 nm. The data analysis was performed with FlowJo 10.8.1 software.

SW620 cells [5] = experiment: Mitochondrial membrane potential (DiOC6/PI, flow cytometry); type: cell-based, human; details: SW620, treated with IC50, 48 h
Method: The fluorescent dyes PI and DIOC6 (3,3’-dihexyloxacarbocyanine iodide) were used to observe the depolarization of the mitochondrial membrane as well as possible cell membrane damage. For this method, 250,000 cells/well were initially seeded in 6-well culture plates during a 24 h adherence period at 37 °C in a 5% CO2 atmosphere. […] After treatment, cells were obtained by mechanical disaggregation, stained with DiOC6 and PI, and incubated at room temperature for 30 min in the dark. Ten thousand events were analyzed by flow cytometry with excitation at 488 nm and emission detection with green (530/15 nm) and red (610/20 nm) filters.

SW620 cells [6] = experiment: Cell death induction (Annexin-V/PI, flow cytometry); type: cell-based, human; details: SW620, treated with IC50, 48 h
Method: For this method, 250,000 cells/well were initially seeded in 6-well culture plates during a 24 h adherence period at 37 °C in a 5% CO2 atmosphere. […] After treatment, cells were obtained by mechanical disaggregation, resuspended in a solution with Annexin-V-FLUOS and PI, and incubated for 20 min in the dark before flow cytometry analysis.

[7] = test system: caspase 3, caspase 7, caspase 8 and p53 in SW620 cells; experiment: Apoptotic biomarkers (ELISA); type: cell-based, human; details: SW620, treated with IC50, 48 h, vs control
Method: To provide an approach to the possible molecular mechanisms through which the hybrid compounds induce an effect on the cell lines, different proteins related to the process of death by apoptosis were determined. For this method, 1,000,000 cells were initially seeded per Petri dish, with an adherence period of 24 h at 37 °C in a 5% CO2 atmosphere. […] Later, the consumed medium was discarded, and after the addition of the versene buffer, the cells were obtained by mechanical disaggregation. The cells were then lysed with a cell lysis buffer and centrifuged to obtain the supernatant, which was used to determine the biomarkers of interest by enzyme-linked immunosorbent assays. These ELISA kits were provided by Elabscience Biotechnology Co., Houston, TX, USA [26].

[8] = test system: HT29 colorectal adenocarcinoma cells; design: method as in PMID 33652694; details: cited from earlier work
metastatic SW620 = test system: metastatic SW620; design: method as in PMID 33652694; details: cited from earlier work
normal 3T3 cells = test system: normal 3T3 cells; design: method as in PMID 31080076; details: normal 3T3 cells (mouse embryonic fibroblast cell line); cited from earlier work
SW480 cells [9] = test system: SW480 cells; design: method as in PMID 36297411; details: cited from earlier work
SW620 cells [10] = test system: SW620 cells; design: method as in PMID 36297411; details: cited from earlier work
[11] = test system: SW480 human colon adenocarcinoma cells; design: method as in PMID 34062841; details: cited from earlier work
SW620 cell line = test system: SW620 cell line; design: method as in PMID 34062841; details: cited from earlier work
SGC-7901 = test system: SGC-7901; design: method as in PMID 30025345; details: cited from earlier work
MGC-803 = test system: MGC-803; design: method as in PMID 30025345; details: cited from earlier work
SMMC-7721 = test system: SMMC-7721; design: method as in PMID 30025345; details: cited from earlier work
U87 = test system: U87; design: method as in PMID 30025345; details: cited from earlier work
RPMI8226 cells = test system: RPMI8226 cells; design: method as in PMID 23784627; details: cited from earlier work
MM1S cells = test system: MM1S cells; design: method as in PMID 23784627; details: cited from earlier work
U266 cells = test system: U266 cells; design: method as in PMID 23784627; details: cited from earlier work
THP-1 cell line = test system: THP-1 cell line; design: method as in PMID 27060762; details: cited from earlier work
COLO-205 cell line = test system: COLO-205 cell line; design: method as in PMID 27060762; details: cited from earlier work
HCT-116 cell line = test system: HCT-116 cell line; design: method as in PMID 27060762; details: cited from earlier work
tubulin polymerization = test system: tubulin polymerization; design: method as in PMID 27060762; details: in THP-1 tumor cells; read-out: IC50, inhibition of tubulin polymerization; cited from earlier work
[12] = SW-620, 48 h, 2 days after plating
[13] = SW-620, 96 h, 4 days after plating
[14] = SW-620, 144 h, 6 days after plating
[15] = SW-620, 192 h, 8 days after plating

COc1cccc2c1C(=O)c1c(O)c3c(c(O)c1C2=O)C[C@@](O)(C(=O)CO)C[C@@H]3O[C@H]1C[C@H](N)[C@H](O)[C@H](C)O1 [Adriamycin]
IC50 (Bel7402): 0.73 µM | IC50 (Bel-7402/5-FU): 1.14 µM

COc1cc(/C=C/C(=O)c2ccc(OCCCCCCn3cc(Cn4cc(F)c(=O)[nH]c4=O)nn3)cc2)ccc1O [Compound 6e, (E)-5-fluoro-1-((1-(6-(4-(3-(4-hydroxy-3-methoxyphenyl)acryloyl)phenoxy)hexyl)-1H-1,2,3-triazol-4-yl)methyl)pyrimidine-2,4(1H,3H)-dione]
IC50 (SW480 cells [1]; SW480, 24 h): 38.8 ± 5.46 µM | IC50 (SW480 cells [1]; SW480, 48 h): 18.2 ± 0.88 µM | IC50 (SW620 cells [2]; 48 h): 14.5 ± 1.31 µM | IC50 (SW620 cells [2]; Homo sapiens, SW-620, 24 h, 24 h): > 100 µM | IC50 (SW620 cells [2]; Homo sapiens, SW-620, 48 h, 48 h): 19.5 µM | IC50 (HaCaT cells; 24 h): 76.9 ± 5.87 µM | IC50 (HaCaT cells; 48 h): 19.7 ± 1.99 µM | IC50 (CHO-K1 cells; CHO-K1, 24 h): 33.8 ± 2.2 µM | IC50 (CHO-K1 cells; CHO-K1, 48 h): 34.5 ± 1.37 µM | viability at 2.5 µM (SW620 cells [3]; [12]): 95.6 ± 4.08% | viability at 40 µM (SW620 cells [3]; [12]): 8.77 ± 1.85% | viability at 2.5 µM (SW620 cells [3]; [13]): 60.65 ± 0.46% | viability at 40 µM (SW620 cells [3]; [13]): 0% | viability at 2.5 µM (SW620 cells [3]; [14]): 56.5 ± 2.09% | viability at 40 µM (SW620 cells [3]; [14]): 0% | viability at 2.5 µM (SW620 cells [3]; [15]): 48.9 ± 3.46% | viability at 40 µM (SW620 cells [3]; [15]): 0% | inhibition percentages (decrease in cell viability) (SW620 cells [3]; SW620, from 20 µM, day 2): higher than 30% | Cell cycle distribution, G0/G1 (SW620 cells [4]): 20.6% | Cell cycle distribution, G2/M (SW620 cells [4]): 8.8% | Cell cycle distribution, S Phase (SW620 cells [4]): 24.5% | Dioc6 High population (live cells with high membrane polarization) (SW620 cells [5]): 96% | Dioc6 Low population (cells that lose membrane polarization) (SW620 cells [5]): 0% | PI+ population (membrane damage or dead cells) (SW620 cells [5]): 4.05% | changes in the mitochondrial membrane potential (SW620 cells [5]): do not induce significant changes | Annexin V/PI quadrant Q4 (viable cells) (SW620 cells [6]): 84.7% | levels of executioner caspases 3 and 7 [7]: Significantly increased levels

COc1cccc(/C=C2\CCC/C(=C\c3cccc(OC)c3OC)C2=O)c1OC [DMCH, (2E,6E)-2,6-Bis(2,3-Dimethoxybenzylidine) Cyclohexanone]
increase of the sub-G0/G1 population in the cell cycle [8]: more than 70% | increase of the sub-G0/G1 population in the cell cycle (metastatic SW620): more than 70%

C=C1C(=O)OC2C1CCC(COC(=O)Cn1cc(F)c(=O)n(Cc3ccc(C(F)(F)F)cc3)c1=O)=CCCC1(C)OC21 (centres unmarked) [D]
IC50 (normal 3T3 cells): 5.2 µM

O=c1[nH]c(=O)n(Cc2cn(CCOc3cc(O)c4c(=O)c(-c5ccc(O)cc5)coc4c3)nn2)cc1F [E]
IC50 (SW480 cells [9]): 62.7 ± 7.26 µM | IC50 (SW620 cells [10]): 50.6 ± 1.33 µM

COc1ccc(/C=C/c2ccc(C(=O)/C=C/c3ccc(O)c(OC)c3)cc2)c(OC)c1 [G]
IC50 [11]: 29.2 µM | IC50 (SW620 cell line): 20.4 µM

COc1cc(OC)c2c(=O)c(OCCCOc3ccccc3/C=C/C(=O)/C=C/c3ccccn3)c(-c3cc(OC)c(OC)c(OC)c3)oc2c1 [H]
IC50 (SGC-7901): 1.08 µM | IC50 (MGC-803): 0.56 µM | IC50 (SMMC-7721): 3.18 µM | IC50 (U87): 3.93 µM

COc1cc(/C=C/C(=O)C(=Cc2cccc3c2C(=O)N(C2CCC(=O)NC2=O)C3=O)C(=O)/C=C/c2ccc(O)c(OC)c2)ccc1O (centres unmarked) [I]
IC50 (RPMI8226 cells): 4.55 µM | IC50 (MM1S cells): 6.44 µM | IC50 (U266 cells): 3.96 µM

COc1cc(/C=C/C(=O)/C=C/c2cc(OC)c(OC)c(OC)c2)ccc1OCc1cn(CCOc2cc(=O)oc3ccccc23)nn1 [J]
IC50 (THP-1 cell line): 0.82 µM | IC50 (COLO-205 cell line): 4.68 µM | IC50 (HCT-116 cell line): 2.21 µM | IC50 (tubulin polymerization): 0.82 µM

Source: article PMC10144058, “New Hybrid Scaffolds Based on 5-FU/Curcumin: Synthesis, Cytotoxic, Antiproliferative and Pro-Apoptotic Effect” (Pharmaceutics, 2023)
